Patent US11905530B2, “Cell encapsulation device comprising a pancreatic progenitor cell population” (ViaCyte, Inc., priority 2009, dated 2024)

Legend:
[1] = test system: mice implanted with iPEC grafts; experiment: Glucose stimulated insulin secretion (GSIS): human C-peptide in serum of mice implanted with iPEC grafts; format: in vivo
Excerpt: (§1) To determine whether the change in the composition of PEC and iPEC populations affected in vivo function, PEC and iPEC grafts from most of the experiments described in Table 11 were transplanted into mice substantially as previously described herein and in Applicant's other patent and non-patent publications, including Schulz et al. (2012) and Kroon et al (2008), supra and U.S. Pat. Nos. 7,534,608; 7,695,965; 7,993,920 and 8,278,106, supra. Briefly, PEC and iPEC populations were wholly encapsulated with a […] semi-permeable cell encapsulation device, some of which included micro perforations. The devices were manufactured by Applicant and are described in detail in U.S. Pat. No. 8,278,106, entitled ENCAPSULATION OF PANCREATIC CELLS FROM HUMAN PLURIPOTENT STEM CELLS, filed Nov. 13, 2009, the disclosure of which is incorporated herein by reference in its entirety. Glucose stimulated insulin secretion (GSIS) assays were performed starting from about 56 days post-implant. Blood was collected prior to (fasting) and at combinations of 30 and/or 60 minutes after glucose administration. Graft function was assessed by measuring human C-peptide concentrations in the serum in response to glucose administration.
The amount of human C-peptide released into the serum is indicative of the amount of insulin released. C-peptide is a short 31 amino acid peptide connecting or linking A and B-chains of proinsulin and preproinsulin, which is secreted by functioning beta or insulin secreting cells. As discussed previously by Kroon et al. (2008) supra and others, human C-peptide measurements are appropriate for assessing the release of de novo-generated insulin by the implanted cells. […] Human C-peptide was detected in the serum by at least 8 weeks post-implant. With additional weeks of implant and fasting, glucose-stimulated C-peptide levels increased with the peak levels of C-peptide shifting from 60 minutes to 30 minutes post-glucose administration, which is indicative of a more rapid response to glucose challenge as the insulin cells mature.

[2] = test system: PEC derived from hESC; experiment: Flow cytometry analysis of PEC derived from hESC and treated with heregulin and/or FGF2; format: cell-based, human
Excerpt: Table 9 provides a summary of the flow cytometry analysis of PEC cells treated with Hrg1β and FGF2 at stage 3 and/or 4. The endocrine cells are denoted as CHGA positive (or CHGA+) cells and the non-endocrine cells are denoted as CHGA negative (or CHGA−) cells. The endocrine (CHGA+) and non-endocrine cells (CHGA−) may stain positive for other markers, e.g., positive for PDX1 and/or NKX6.1.

[3] = test system: hES-derived cell aggregates; experiment: Cell aggregate size of hES-derived cell aggregates in suspension culture; format: cell-based, human
Protocol: Preliminary studies were performed using Heregulin and FGF. In certain of these studies, Rho-kinase inhibitor, Y-27632, was included.

[4] = test system: iPS-derived cell cultures (iPEC); experiment: Flow cytometry analysis of iPEC populations from heregulin treated iPS-derived cell cultures; format: cell-based, human; conditions: hIPSC, 30 ng/mL heregulin at stages 3 and 4
Excerpt: (§2) Changes to the standard method as set forth in Table 7 include, but are not limited to: optimization of the number of times any iPSC is passaged; modulating levels of BMP signaling; modulating iPSC suspension aggregation parameters during expansion and differentiation (e.g. shear force, rotation speed and the like); optimization of the concentrations, time of use and duration of use of growth factors, such as Wnt, Activin and rho-kinase inhibitors; and treatment with other growth factors at various stages 1 through 4 of the differentiation protocol as candidates for improving cell mass, proliferation, differentiation, survival and the like (e.g. ERBB ligands). These many iterative experiments were tested alone, or in combination, to determine how differentiation methods for iPSC during stages 1-4 could be optimized. […] The baseline conditions were similar to those described in Examples 1, 2 and 5 as well as Table 7 herein, except that heregulin was added at stages 3 and 4. Although 30 ng/mL of Hrg1β was used, concentrations ranging from 10 ng/mL to 50 ng/mL, or even greater than 50 ng/mL are suitable. Also, addition of a rho-kinase inhibitor, Y-27632, was maintained in the differentiation cultures as described in Example 2.
(§3) To determine the effect of the addition of heregulin or heregulin and a rho-kinase inhibitor on stage 3 and 4 cell subpopulations, iPEC populations were analyzed by flow cytometry. Table 11 provides a summary of the flow cytometry analysis of various iPEC populations using the formulations set forth in Table 10, as well as such formulations having been modified by increasing the Activin concentration to 200 ng/mL. […] Table 11 also discloses data regarding in vivo function of the cells produced in each experiment.

[5] = test system: PEC (hESC); experiment: Flow cytometry analysis of PEC from heregulin treated hESC-derived cell cultures (E2354); format: cell-based, human
Excerpt: as §2, §3
Under certain conditions, the ratio of subpopulations of cells in the PEC (hESC, E2354) and iPEC (E2314, E2344, E2347) populations were altered. For example, sometimes, the percentage of endocrine (CHGA+) cells decreased and the percentage of non-endocrine cells (CHGA−/NKX6.1+/PDX1+) increased as compared to the baseline (no heregulin) conditions.

[6] = test system: mice implanted with PEC grafts (CyT203 hESC); experiment: Glucose stimulated insulin secretion (GSIS): human C-peptide in serum of mice implanted with PEC grafts from hESC; format: in vivo; conditions: experiment 2354; PEC produced from hESC; grafts resulting from heregulin treatment
Excerpt: as §1
The amount of human C-peptide released into the serum is indicative of the amount of insulin released. […] Human C-peptide was detected in the serum by at least 8 weeks post-implant. […]

[7] = test system: iPSC; experiment: Cell mass of iPSC-derived differentiation cultures for implantation; format: cell-based, human; conditions: heregulin at stages 3 and 4 without a rho-kinase inhibitor; implantation impossible
Excerpt: As such, the provision of heregulin alone or a rho-kinase inhibitor alone is not substantially similar to the sum effect of the two combined. That is, alone neither results in robust glucose responsiveness in vivo but combined they produce glucose responsiveness similar to that of hES-derived cells. Accordingly, it appeared that the provision of both heregulin and a rho-kinase inhibitor is synergistic since their combined effect is greater than the sum of the effect of each separately.

Molecule: C[C@@H](N)[C@H]1CC[C@H](C(=O)Nc2ccncc2)CC1 [rho-kinase inhibitor, Y-27632, reference compound]
- in vivo function of graft ([1]; rho-kinase inhibitor alone (baseline conditions, no heregulin)): poor in vivo function

Molecule: Fibroblast growth factor 2 [FGF2]
- CHGA− NKX6.1− PDX1− (Triple Negative/ Residual Cells) ([2]; 50 ng/mL of FGF2 for 2 days at stage 3, control 13.1): 9.15%
- CHGA+ (Endocrine) ([2]; 50 ng/mL of FGF2 for 2 days at stage 3, control 32.9): 11.9%
- CHGA− NKX6.1+ PDX1+ (Non-endocrine) ([2]; 50 ng/mL of FGF2 for 2 days at stage 3, control 54.01): 79%
- CHGA− NKX6.1− PDX1− (Triple Negative/ Residual Cells) ([2]; 50 ng/mL of FGF2 for 3 days at stage 3, control 13.1): 22.7%
- CHGA+ (Endocrine) ([2]; 50 ng/mL of FGF2 for 3 days at stage 3, control 32.9): 0.33%
- CHGA− NKX6.1+ PDX1+ (Non-endocrine) ([2]; 50 ng/mL of FGF2 for 3 days at stage 3, control 54.01): 76.9%
- cell aggregate size ([3]; 3 days of 50 ng/mL FGF2 at stage 3 compared to 2 days): increase in cell aggregate size

Molecule: Heregulin-1β
- CHGA− NKX6.1− PDX1− (Triple Negative/ Residual Cells) ([2]; 10 ng/mL Heregulin-1β at stage 3, control without Hrg and FGF2 13.1, listed as Hrg): 8.55%
- CHGA− NKX6.1− PDX1− (Triple Negative/ Residual Cells) ([2]; 10 ng/mL Heregulin-1β at stage 3, control without Hrg and FGF2 13.1, listed as Hrg1β): did decrease
- CHGA− NKX6.1+ PDX1+ (Non-endocrine) ([2]; 10 ng/mL Heregulin-1β at stage 3, control without Hrg and FGF2 54.01): 61.2%
- CHGA+ (Endocrine) ([2]; 10 ng/mL Heregulin-1β at stage 3, share of PEC population, control without Hrg and FGF2 32.9, listed as Hrg): 30.3%
- CHGA+ (Endocrine) ([2]; 10 ng/mL Heregulin-1β at stage 3, share of PEC population, control without Hrg and FGF2 32.9, listed as Hrg1β): not significantly affected
- CHGA− NKX6.1− PDX1− (Triple Negative/ Residual Cells) ([2]; 50 ng/mL Heregulin-1β at stage 3, control 13.1, listed as Hrg): 6.9%
- CHGA− NKX6.1− PDX1− (Triple Negative/ Residual Cells) ([2]; 50 ng/mL Heregulin-1β at stage 3, control 13.1, listed as Hrg1β): did decrease and more so
- CHGA+ (Endocrine) ([2]; 50 ng/mL Heregulin-1β at stage 3, control 32.9): 28.9%
- CHGA− NKX6.1+ PDX1+ (Non-endocrine) ([2]; 50 ng/mL Heregulin-1β at stage 3, control 54.01): 64.2%
- CHGA− NKX6.1− PDX1− (Triple Negative/ Residual Cells) ([4]; Exp. E2314, baseline 3.20): 9.88%
- CHGA− NKX6.1− PDX1+ (PDX1 only) ([4]; Exp. E2314, baseline 11.32): 16.83%
- CHGA+ (Endocrine) ([4]; Exp. E2314, baseline 19.83): 9.00%
- CHGA− NKX6.1+ PDX1+ (Non-endocrine) ([4]; Exp. E2314, baseline 65.59): 64.21%
- CHGA− NKX6.1− PDX1− (Triple Negative/ Residual Cells) ([4]; Exp. E2344, baseline 1.80): 2.75%
- CHGA− NKX6.1− PDX1+ (PDX1 only) ([4]; Exp. E2344, baseline 5.45): 11.23%
- CHGA− NKX6.1+ PDX1+ (Non-endocrine) ([4]; Exp. E2344, baseline 36.15): 49.00%
- CHGA+ (Endocrine) ([4]; Exp. E2344, baseline 56.51): 36.13%
- CHGA− NKX6.1− PDX1− (Triple Negative/ Residual Cells) ([4]; Exp. E2347, baseline 2.11): 1.68%
- CHGA− NKX6.1− PDX1+ (PDX1 only) ([4]; Exp. E2347, baseline 10.97): 12.30%
- CHGA− NKX6.1+ PDX1+ (Non-endocrine) ([4]; Exp. E2347, baseline 37.16): 68.91%
- CHGA+ (Endocrine) ([4]; Exp. E2347, baseline 49.78): 17.27%
- CHGA− NKX6.1− PDX1− (Triple Negative/ Residual Cells) ([4]; Exp. E2380, baseline 9.10): 7.03%
- CHGA− NKX6.1− PDX1+ (PDX1 only) ([4]; Exp. E2380, baseline 12.08): 17.24%
- CHGA− NKX6.1+ PDX1+ (Non-endocrine) ([4]; Exp. E2380, baseline 38.18): 29.72%
- CHGA+ (Endocrine) ([4]; Exp. E2380, baseline 41.16): increased rather than decreased
- CHGA+ (Endocrine) ([4]; Exp. E2380, baseline 41.16, listed as Hg): 45.91%
- CHGA− NKX6.1− PDX1− (Triple Negative/ Residual Cells) ([5]; Exp. E2354, 30 ng/mL heregulin at stages 3 and 4, baseline 1.75): 1.86%
- CHGA− NKX6.1− PDX1+ (PDX1 only) ([5]; Exp. E2354, 30 ng/mL heregulin at stages 3 and 4, baseline 2.89): 8.10%
- CHGA+ (Endocrine) ([5]; Exp. E2354, 30 ng/mL heregulin at stages 3 and 4, baseline 33.39): 16.18%
- CHGA− NKX6.1+ PDX1+ (Non-endocrine) ([5]; Exp. E2354, 30 ng/mL heregulin at stages 3 and 4, baseline 62.01): 73.00%
- cell aggregate size ([3]; 10 ng/mL for one day at stage 1, compared to suspension culture without Heregulin-1β, preliminary studies): increased the cell aggregate size
- aggregate disk size ([3]; Hrg1β increased from 10 ng/mL to 50 ng/mL at stage 3): aggregate disk size increased
- increase of serum human C-peptide compared to grafts prepared without heregulin (baseline) ([1]; experiment 2380, 60 minutes post glucose administration): ~5 fold
- serum human C-peptide ([1]; experiment 2380, iPEC grafts resulting from heregulin treatment, 60 minutes post glucose administration, baseline 200 pM): 933 pM
- serum human C-peptide post glucose administration compared to baseline controls ([1]; grafts resulting from heregulin treatment, in general (FIGS. 7A-7C)): higher levels of serum human C-peptide
- serum C-peptide compared to baseline controls [6]: does not show higher levels of serum C-peptide
- cell mass [7]: visibly poor cell mass
